Patent US10857209B2, “Lysosomal acid lipase and PPAR gamma ligands as immune therapies for cancer treatment” (Indiana University Research and Technology Corporation, priority 2016, dated 2020)

What was measured:
Format in all cases: cell-based, mouse
HD1B cells [1] = assay: Mitochondrial membrane potential assay (JC1) in HD1A and HD1B cells; conditions: for mitochondrial membrane potential (JC-1 staining): NAC 100 μM or Tempol 10 μM overnight
Experimental: (§1) HD1A and HD1B cells were grown in 24-well plates to the desired confluence. Cells were treated with solvent (DMSO, 0.1%), rapamycin (40 nM), or PP242 (40 nM) for 1 hour, or NAC (100 μM, Sigma-Aldrich), or Tempol (10 μM, Sigma-Aldrich) overnight. Treated cells were replaced with the pre-warmed (37° C.) medium containing JC1 (5 μM, Molecular Probes) for 1 hour. Labeled cells were replaced with fresh medium and examined under the Nikon inverted fluorescence microscope.

HD1B cells [2] = assay: ROS measurement by flow cytometry in HD1A and HD1B cells; conditions: 40 nM, 60 minutes
Experimental: HD1A and HD1B cells were treated with solvent, rapamycin (40 nM), or PP242 (40 nM) for 60 minutes. Cells were washed and stained with 2 μM of 2′,7′-dichlorodihydrofluorescein diacetate stained (DCFDA, Invitrogen) which is nonfluorescent until the acetate group is removed by intracellular esterases and oxidation occurs within the cell (Invitrogen). The incubation was at 37° C. for 20 minutes, followed by washing with cold PBS. The ROS level was measured by flow cytometry.

mTOR signaling pathway = assay: Western blot of mTOR downstream effector S6 phosphorylation in HD1A and HD1B cells
Experimental: HD1A and HD1B cells were lysed in the Cell Lytic M mammalian cell lysis/extraction buffer (Sigma-Aldrich) according to the manufacturer's instruction. Protein samples were fractionated on a Novex 4-20% Tris-Glycine Mini Gel (Invitrogen). After transferring to the polyvinylidene difluoride membrane (Bio-Rad), the membrane was blotted with 5% nonfat dry milk in 1×PBS, and incubated with rabbit anti-p-S6 (Ser235/236), anti-S6, anti-p-Drp1 (Ser616), anti-Drp1, and anti-actin primary antibodies (from Cell Signaling), or rat anti-LAMP1, rabbit anti-Opa1 antibodies (from Santa Cruz). Following incubation with the secondary antibody that conjugated with horse radish peroxidase, proteins were visualized with chemiluminescent substrate (Thermo Scientific) under ChemiDox MP Image System.
as §1

Structure (SMILES) | mitochondrial membrane potential (JC-1 staining) (HD1B cells [1]) | ROS production (HD1B cells [2]) | mitochondrial membrane potential (JC1 staining) (HD1B cells [1]; mTOR inhibitor 40 nM, 1 hour) | mTOR downstream effector S6 phosphorylation (mTOR signaling pathway)
CC(=O)N[C@@H](CS)C(=O)O [NAC] | partially improved the condition of the mitochondrial membrane potential | – | – | –
CC(C)n1nc(-c2cc3cc(O)ccc3[nH]2)c2c(N)ncnc21 [PP242] | – | decreased ROS production | reversed the damaged mitochondrial membrane potential | blocked mTOR downstream effector S6 phosphorylation
CC1(C)CC(O)CC(C)(C)N1[O] [TEMPOL] | partially improved the condition of the mitochondrial membrane potential | – | – | –
